According to US20240238310A1, “MODULATION OF SEX STEROID HORMONE PRODUCTION AND ACTIVITY FOR TREATING AND PREVENTING HERNIAS” (Northwestern University, priority 2020, published 2024):
“Also recorded” adds a separate entry of the source.

Tests used:
[1] = test system: LAMT primary fibroblasts from Arom^hum mice; assay: mRNA levels of estrogen-responsive and fibrotic genes in LAMT primary fibroblasts after E2 antagonist treatment; assay type: cell-based, mouse; settings: MPP, pretreated 2 hours before addition of E2 (10 nM)
Protocol: FIG. 10. mRNA levels of estrogen-responsive genes [Pgr (A, E) and Greb1 (B, F)] and fibrotic genes [Spon2 (C, G), Kiss1 (D), and Eln (H)] in LAMT primary fibroblasts from Arom^hum mice after treatment with 100 nM ICI 182,780 (ICI) or […] MPP in the presence or absence of E2 (10 nM). Cells were pretreated with ICI 182,780 or MPP for 2 hours before the addition of E2. Veh, vehicle. *P<0.05, **P<0.01. GAPDH mRNA levels served as controls.
Experiment 1a2: Does the general E2 antagonist fulvestrant, which downregulates and blocks ER, or ERα-selective E2 antagonist MPP prevent, arrest or reverse LAMT muscle fibrosis, atrophy and inguinal hernias in male Arom^hum mice? […] Here, we will define whether the effects of E2 on hernia formation in LAMT is mediated via ERα in vivo. We will treat Arom^hum or WT mice with vehicle, fulvestrant (ICI 182,780), or MPP. […] Circulating and muscle tissue E2 levels will be measured using LC-MS^2. To validate the effects of each treatment, protein expression of ERα and E2/ERα target genes (Ccnd1, Pgr, and Greb1), and cell proliferation markers (Ki67 and PCNA) will be determined by IHC and immunoblotting. Fibrotic-related genes (Kiss1, Ren1, Emb, Timp1, Spon2, and Eln), the ECM marker Col1a1, and the myocyte marker Myh will be assessed using qPCR and IHC in LAMT after fulvestrant, MPP, and/or letrozole treatment. […]

LAMT WT fibroblasts = assay: R1881 treatment of primary fibroblasts, western blot (AR, PCNA); assay type: cell-based, mouse; settings: for increase in PCNA levels (densitometry normalized to GAPDH): preliminary data
Protocol: (§1) Primary fibroblasts were isolated from LAMT from WT and Arom^Hum mice (n=5/genotype). Cells were treated for 24 hours with increasing doses (0.001, 0.01, 0.1, 1, 5, 10, and 100 nM) of R1881, a synthetic androgen, and compared to untreated cells by western blot.

[2] = test system: LAMT Arom^Hum fibroblasts; assay: as above; assay type: cell-based, mouse; settings: for increase in PCNA levels (densitometry normalized to GAPDH): preliminary data
Protocol: as §1

Arom^hum mice [3] = assay: Reversal of established scrotal hernias and LAMT fibrosis/atrophy in Arom^hum mice; assay type: in vivo, mouse; settings: for time required to reverse large hernias, compared to fulvestrant treatment / reversal of large scrotal hernia: Arom^hum mice with large hernias
Protocol: FIG. 16. […] Arom^hum mice with small to moderate size of hernias were treated with placebo or letrozole for 12 weeks. (A) Schematic diagram depicts the schedule of drug administration. (B) The area of scrotal hernia in Arom^hum mice. (C) Representative photomicrographs of Masson's trichrome-stained LAMT sections of WT and Arom^hum mice. Quantification of the percentage of connective tissue or fibrotic area (D) or myofiber area (E) in WT and Arom^hummice. 10 representative high-power fields were analyzed in each tissue. One-way ANOVA with Tukey's multiple comparison test, **p<0.01, ***p<0.001. Scale bars, […]. n=5 mice per group.
FIG. 17. […] Arom^hum mice with small to moderate size of hernias were treated with placebo or letrozole for 3 weeks. (A) Schematic diagram depicts the schedule of drug administration. (B) The area of scrotal hernia in Arom^hum mice.
FIG. 18. E2/ER antagonist fulvestrant reverses the large size of scrotal hernias and rescues LAMT fibrosis and myocyte atrophy in Arom^hum mice. Arom^hum mice with large size of hernias were treated with placebo or fulvestrant for 12 weeks. (A) Schematic diagram depicts the schedule of drug administration. (B) The area of scrotal hernia in Arom^hum mice. (C) Representative photomicrographs of Masson's trichrome-stained LAMT sections of WT and Arom^hum mice. Quantification of the percentage of connective tissue or fibrotic area (D) in WT and Arom^hum mice. 10 representative high-power fields were analyzed in each tissue. (E) Hydroxyproline content in LAMT of WT and Arom^hum mice treated with fulvestrant. One-way ANOVA with Tukey's multiple comparison test, ***p<0.001, ****p<0.0001. n=5 mice per group.
FIG. 19. Aromatase inhibitor letrozole reverses the large size of scrotal hernias in Arom^hum mice. Arom^hum mice with large size of hernias were treated with placebo or letrozole for 12 weeks. (A) Schematic diagram depicts the schedule of drug administration. (B) The area of scrotal hernia in Arom^hum mice.
FIG. 20. E2/ER antagonist raloxifene reverses the large size of scrotal hernias in Arom^hum mice. Arom^hum mice with large size of hernias were treated with placebo or raloxifene for 3 weeks. (A) Schematic diagram depicts the schedule of drug administration. (B) The area of scrotal hernia in Arom^hum mice.
We treated Arom^hum mice with letrozole for 12 weeks. […] Raloxifene is a selective estrogen receptor modulator (SERM) and is currently used to prevent and treat osteoporosis in postmenopausal women.
We treated Arom^hum mice with fulvestrant for 12 weeks when the hernia area was over 200 mm^2. Large hernias were completely disappeared after 3- to 4-week of fulvestrant administration. […] We measured the total amount of collagen (largely type I and III), a major component of ECM, through measuring the content of hydroxyproline(1).

LAMT E2 = assay: Serum and LAMT estradiol (E2) by LC-MS^2 after letrozole treatment; assay type: in vivo, mouse; settings: Arom^hum mice, letrozole 10 μg daily SC pellets starting at week 3
Protocol: FIG. 4. (A) Serum estradiol (E2) and (B) LAMT E2 were measured by liquid chromatography-tandem mass spectrometry (LC-MS^2) assay after letrozole (let) treatment (n=10/group). *p<0.05. **p<0.01. Veh, vehicle.
LAMT estrogen levels are increased in Arom^hum mice. Arom^hum mice recapitulate the primary aspects of aromatase expression in men in that most peripheral (extragonadal) tissues, such as skeletal muscle and adipose tissue, express aromatase primarily using the distal promoter 1.4 and, to a lesser extent, the proximal promoter II (FIG. 3)^32. […] Local E2 levels in LAMT, however, are strikingly higher in Arom^hum mice than in WT mice (FIG. 4B).
Increased LAMT estrogen levels are associated with LAMT fibrosis, myocyte atrophy, and inguinal hernia development; aromatase inhibitor prevents hernia formation in Arom^hum mice. […]
Experiment 1a1: Does aromatase inhibition arrest or reverse LAMT fibrosis, atrophy, and hernia in male Arom^hum mice? […] Hernia development will be monitored by visual inspection twice a week for 12 weeks after letrozole administration and will be reported as hernia incidence using Kaplan-Meier curve analysis. The length and width of the observed hernias will be measured to calculate the surface area (length×width). […] Circulating and tissue (LAMT and UAMT) E2 levels will be measured at the IIT Research Institute by Dr. Miguel Muzzio (see letter) using LC-MS^2. […]

Arom^hum mice [4] = assay: Prevention of inguinal hernia, LAMT fibrosis and atrophy in Arom^hum mice (treatment started before hernia formation); assay type: in vivo, mouse
Text: Increased LAMT estrogen levels are associated with LAMT fibrosis, myocyte atrophy, and inguinal hernia development; aromatase inhibitor prevents hernia formation in Arom^hum mice. […] None of the WT littermates (n=32) developed hernia.
In the mouse, the scrotum is connected to the peritoneal cavity with a narrow funicular (or inguinal) canal, whose walls are composed of LAMT. Structurally normal LAMT is essential to maintain the tone of this canal and prevents herniation of bowel. LAMT is the critical site affected by E2 excess (FIGS. 2, 5, 6). As in many other tissues, stromal cells intimately interact with parenchymal cells (myocytes) in UAMT and LAMT (FIG. 6). […] Administration of the aromatase inhibitor letrozole started at 3 weeks of age for 12 weeks prevented LAMT atrophy, fibrosis and herniation in all (10 out of 10) treated Arom^hum mice (FIG. 6B).
Experiment 1a1: Does aromatase inhibition arrest or reverse LAMT fibrosis, atrophy, and hernia in male Arom^hum mice? […] The hernias will be classified as mild, early moderate, late moderate and severe if the bulging area through muscle tissue is <100 mm^2 (˜4 weeks), 100-150 mm^2 (˜6 weeks), 150-200 mm^2 (˜8 weeks), or >200 mm^2 (˜10 weeks), respectively. First, we will treat Arom^hum mice showing mild hernias with letrozole (SC 10 μg/day release pellet) or vehicle starting at 4 weeks of age for 12 weeks^63. We will assess whether muscle fibrosis, atrophy, and hernia can be arrested or reversed in mildly (<100 mm^2) affected animals. If early letrozole treatment can arrest mild muscle fibrosis, we will delay the initiation of treatment to 6, 8, or 10 weeks of age to determine whether letrozole can arrest or reverse the growth of the early moderate (6 weeks), late moderate (8 weeks) or severe hernia (10 weeks). Hernia development will be monitored by visual inspection twice a week for 12 weeks after letrozole administration and will be reported as hernia incidence using Kaplan-Meier curve analysis. The length and width of the observed hernias will be measured to calculate the surface area (length×width). After completion of the treatment, the mice will be dissected, and LAMT, UAMT (control), and serum will be collected. One hundred mg of frozen muscle tissue will be obtained to measure tissue estrogen levels. Circulating and tissue (LAMT and UAMT) E2 levels will be measured at the IIT Research Institute by Dr. Miguel Muzzio (see letter) using LC-MS^2. We will use immunoblotting and IHC to determine ERα expression in LAMT and UAMT.
This finding was published in PNAS in Oct., 2018. […] We treated Arom^hum mice with fulvestrant for 12 weeks starting at the age of 4 weeks (before hernia formation). As expected, placebo-treated Arom^hum mice developed scrotal hernias.

[5] = R1881 0.001-100 nM, 24 hours, western blot
[6] = Arom^hum mice with small to moderate hernias, letrozole for 12 weeks

Cc1c(-c2ccc(O)cc2)nn(-c2ccc(O)cc2)c1-c1ccc(OCCN2CCCCC2)cc1 [MPP, Methyl-Piperidino-Pyrazole]
E2-induced expression of estrogen-responsive genes (Pgr and Greb1) and fibrotic genes (Spon2, Kiss1, Eln) [1]: significantly decreased E2-induced expression of estrogen-responsive genes (Pgr and Greb1) and fibrotic genes (Spon2, Kiss1 and, Eln)

C[C@]1(O)CC[C@H]2[C@@H]3CCC4=CC(=O)CCC4=C3C=C[C@@]21C [R1881, (17b)-17-Hydroxy-17-methyl-estra-4,9,11-trien-3-one]
increase in PCNA levels (densitometry normalized to GAPDH) (LAMT WT fibroblasts; 0.001 nM R1881, 24 hours): 80%
increase in PCNA levels (densitometry normalized to GAPDH) (LAMT WT fibroblasts; 0.01 nM R1881, 24 hours): 60%
decrease in PCNA levels (LAMT WT fibroblasts; 100 nM R1881, 24 hours): 25%
AR levels (LAMT WT fibroblasts; [5]): increased AR levels in a dose-dependent manner
increase in PCNA levels (densitometry normalized to GAPDH) ([2]; 0.001 nM R1881, 24 hours): 20%
increase in PCNA levels (densitometry normalized to GAPDH) ([2]; 0.01 nM R1881, 24 hours): 30%
decrease in PCNA levels ([2]; 10 nM R1881, 24 hours): 40%
decrease in PCNA levels ([2]; 100 nM R1881, 24 hours): 30%
AR levels [2, 5]: increased AR levels in a dose-dependent manner

N#Cc1ccc(C(c2ccc(C#N)cc2)n2cncn2)cc1 [letrozole]
time required to reverse large hernias, compared to fulvestrant treatment (Arom^hum mice [3]): require a longer time to reverse large hernias as compared to fulvestrant treatment
reversal of large scrotal hernia (Arom^hum mice [3]; letrozole for 12 weeks, FIG. 19): reverses large scrotal hernia
muscle fibrosis (Arom^hum mice [3]; [6]): reduction in muscle fibrosis
myocyte size (Arom^hum mice [3]; [6]): restoration of myocyte size
reversal of mild to moderate size of hernia (150-200 mm^2) (Arom^hum mice [3]; Arom^hum mice, letrozole for 12 weeks, FIG. 16): can reverse mild to moderate size of hernia
LAMT E2 levels (LAMT E2): restored LAMT E2 levels similar to WT LAMT levels
hernia development (Arom^hum mice [4]; Arom^hum male mice, letrozole 10 μg daily via subcutaneous slow-release pellets starting at week 3, 12 weeks): entirely prevented LAMT fibrosis or inguinal hernia development in all animals; also recorded: prevented hernia development in all Arom^hum mice; also recorded: prevents abdominal bulging, LAMT stromal fibrosis, myocyte atrophy, and inguinal hernias in three lines of Arom^hum mice; also recorded: completely prevented the formation of inguinal hernias
ECM content in LAMT (Arom^hum mice [4]; Arom^hum mice): significantly decreased
development of LAMT fibrosis (fibrotic area, Masson's trichrome) (Arom^hum mice [4]; Arom^hum mice, 4-week-old mice treated for 12 weeks, FIGS. 15C and D): completely prevented with letrozole treatment
stromal cell proliferative activity (Ki67-positive stromal cells) in LAMT (Arom^hum mice [4]; Arom^hum mice, FIG. 7E): significantly decreased stromal cell proliferative activity
LAMT atrophy and fibrosis (Masson's trichrome staining) (Arom^hum mice [4]; Arom^hum mice, letrozole, FIG. 6B): prevented LAMT atrophy and fibrosis
treated mice in which LAMT atrophy, fibrosis and herniation were prevented (Arom^hum mice [4]; Arom^hum mice, started at 3 weeks of age for 12 weeks): 10 out of 10

O=C(c1ccc(OCCN2CCCCC2)cc1)c1c(-c2ccc(O)cc2)sc2cc(O)ccc12 [raloxifene]
time required to reverse large hernias, compared to fulvestrant treatment (Arom^hum mice [3]): require a longer time to reverse large hernias as compared to fulvestrant treatment
reversal of large scrotal hernia (Arom^hum mice [3]; raloxifene for 3 weeks, FIG. 20): reverses large scrotal hernia
reversal of small to large hernias (Arom^hum mice [3]; Arom^hum mice, 3-week raloxifene treatment, FIGS. 17 and 20): capable to reverse small to large hernias
reversal of mild to moderate size of hernia (Arom^hum mice [3]; Arom^hum mice, raloxifene for 21 days, FIG. 17): can also reverse mild to moderate size of hernia; also recorded: reverses the small to moderate size of scrotal hernias
